H-ISFLIF-OH [NH2—ISFLIF—COOH]: the cytotoxicity result in the data set on primary neurons is given as “dramatic cytotoxicity”.
Still for that read-out and setting: under H-KVQIIN-OH [NH2—KVQIIN—COOH] stands “dramatic cytotoxicity”; under H-STVIIE-OH [NH2—STVIIE—COOH], “dramatic cytotoxicity”.
In the case of ganglioside GM1, in the data set with neuronal cells, the “N. Red (neutral red incorporation)” value is on record as 36.1 ± 2.9.

The record behind these values is patent US20100093001A1 (priority 2006, published 2010).
